In US8778871B2 (Takeda Pharmaceutical Company Limited, priority 2004, dated 2014):
Starred links: 1 amine or outer side, 2 acyl side, 3 side chain; linkers in the order of their positions; H or OH if unused. Non-standard residues stand in square brackets, D forms with d. *: point of attachment. Arg(NO2) = N=C(NCCC[C@H](N)C(=O)O)N[N+](=O)[O-]; Tyr(Me) = COc1ccc(C[C@H](N[*:1])C(=O)[*:2])cc1; 2Nal = N[C@@H](Cc1ccc2ccccc2c1)C(=O)O; d1Nal = N[C@H](Cc1cccc2ccccc12)C(=O)O; d2Nal = N[C@H](Cc1ccc2ccccc2c1)C(=O)O; Cyclohexanecarbonyl = O=C(C1CCCCC1)*; Arg(Me) = CNC(=N)NCCC[C@H](N)C(=O)O; Lys(Me2) = CN(C)CCCC[C@H](N)C(=O)O; hArg = N=C(N)NCCCC[C@H](N)C(=O)O; hPhe = N[C@@H](CCc1ccccc1)C(=O)O; 2Thi = N[C@@H](Cc1cccs1)C(=O)O; Cha = N[C@@H](CC1CCCCC1)C(=O)O; NMeN = CN[C@@H](CC(N)=O)C(=O)O; aThr = C[C@H](O)[C@H](N)C(=O)O; Tos = Cc1ccc(S(=O)(=O)*)cc1; NMeS = CN[C@@H](CO)C(=O)O; Abu = CC[C@H](N)C(=O)O; Dap = NC[C@H](N)C(=O)O; Bz = O=C(c1ccccc1)*; azaGly = NNC(=O)O; For = O=C*

Target: T1, hOT7T175 (Homo sapiens, UniProt Q969F8, L364H)
T1 construct: expressed in transfected cells
T1 sequence (Q969F8 whole entry L364H): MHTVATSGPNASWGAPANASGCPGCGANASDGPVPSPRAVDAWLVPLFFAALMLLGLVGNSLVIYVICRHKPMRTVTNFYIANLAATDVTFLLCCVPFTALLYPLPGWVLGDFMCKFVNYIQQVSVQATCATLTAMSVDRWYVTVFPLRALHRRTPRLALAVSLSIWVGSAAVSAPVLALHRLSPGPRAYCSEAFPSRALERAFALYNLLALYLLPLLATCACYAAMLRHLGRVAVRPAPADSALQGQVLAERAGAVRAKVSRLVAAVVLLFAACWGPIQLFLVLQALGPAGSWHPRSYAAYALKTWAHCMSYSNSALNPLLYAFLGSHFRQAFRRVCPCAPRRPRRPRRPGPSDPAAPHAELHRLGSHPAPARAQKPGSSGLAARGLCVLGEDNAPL
Type: cell-based
Conditions: hOT7T175/CHO, FLIPR, evaluation for 40 seconds after initiation of the reaction
Experimental: The intracellular Ca ion level-increasing activity was measured using FLIPR as in TEST EXAMPLE 2.

| Substance | Specific Act. (EC50/MS10 EC50) |
| --- | --- |
| Ac-D-Tyr-D-Trp-Asn-Thr-Trp-AzaGly-Leu-Arg(Me)-Trp-NH2 (Ac-[dY][dW]NTW[azaGly]L[Arg(Me)]W-NH2; SMILES CNC(=N)NCCC[C@H](NC(=O)[C@H](CC(C)C)NC(=O)NNC(=O)[C@H](Cc1c[nH]c2ccccc12)NC(=O)[C@@H](NC(=O)[C@H](CC(N)=O)NC(=O)[C@@H](Cc1c[nH]c2ccccc12)NC(=O)[C@@H](Cc1ccc(O)cc1)NC(C)=O)[C@@H](C)O)C(=O)N[C@@H](Cc1c[nH]c2ccccc12)C(N)=O) [Compound No. 692] | 0.7 |
| Ac-D-Tyr-D-Trp-Asn-Thr-Tyr(Me)-AzaGly-Leu-Arg(Me)-Trp-NH2 (Ac-[dY][dW]NT[Tyr(Me)][azaGly]L[Arg(Me)]W-NH2; SMILES CNC(=N)NCCC[C@H](NC(=O)[C@H](CC(C)C)NC(=O)NNC(=O)[C@H](Cc1ccc(OC)cc1)NC(=O)[C@@H](NC(=O)[C@H](CC(N)=O)NC(=O)[C@@H](Cc1c[nH]c2ccccc12)NC(=O)[C@@H](Cc1ccc(O)cc1)NC(C)=O)[C@@H](C)O)C(=O)N[C@@H](Cc1c[nH]c2ccccc12)C(N)=O) [Compound No. 693] | 1.5 |
| Ac-D-Tyr-D-Trp-Asn-Thr-Tyr-AzaGly-Leu-Arg(Me)-Trp-NH2 (Ac-[dY][dW]NTY[azaGly]L[Arg(Me)]W-NH2; SMILES CNC(=N)NCCC[C@H](NC(=O)[C@H](CC(C)C)NC(=O)NNC(=O)[C@H](Cc1ccc(O)cc1)NC(=O)[C@@H](NC(=O)[C@H](CC(N)=O)NC(=O)[C@@H](Cc1c[nH]c2ccccc12)NC(=O)[C@@H](Cc1ccc(O)cc1)NC(C)=O)[C@@H](C)O)C(=O)N[C@@H](Cc1c[nH]c2ccccc12)C(N)=O) [Compound No. 691] | 1.1 |
| Ac-D-Tyr-D-Trp-Asp(NMe2)-Thr-Phe-AzaGly-Leu-Arg(Me)-Trp-NH2 [Compound No. 703] | 3.7 |
| Ac-D-Tyr-D-Trp-Gly-Ser-Phe-AzaGly-Leu-Arg(Me)-Trp-NH2 (Ac-[dY][dW]GSF[azaGly]L[Arg(Me)]W-NH2; SMILES CNC(=N)NCCC[C@H](NC(=O)[C@H](CC(C)C)NC(=O)NNC(=O)[C@H](Cc1ccccc1)NC(=O)[C@H](CO)NC(=O)CNC(=O)[C@@H](Cc1c[nH]c2ccccc12)NC(=O)[C@@H](Cc1ccc(O)cc1)NC(C)=O)C(=O)N[C@@H](Cc1c[nH]c2ccccc12)C(N)=O) [Compound No. 686] | 0.6 |
| Ac-D-Tyr-Pya(4)-Asn-Thr-Phe-AzaGly-Leu-Arg(Me)-Trp-NH2 [Compound No. 624] | 1.2 |
| Ac-Tyr-D-Pya(4)-Asn-Thr-Phe-AzaGly-Leu-Arg(Me)-Trp-NH2 [Compound No. 611] | 1.7 |
| Ac-[d1Nal][dW]NTF[azaGly]L[Arg(Me)]W-NH2 [Compound No. 619] | 1.5 |
| Ac-[d2Nal][dW]NTF[azaGly]L[Arg(Me)]W-NH2 [Compound No. 620] | 1.7 |
| Ac-[dE][dW]NTF[azaGly]L[Arg(Me)]W-NH2 [Compound No. 622] | 2.8 |
| Ac-[dR][dY][dW]NTF[azaGly]L[Arg(Me)]W-NH2 [Compound No. 568] | 0.6 |
| Ac-[dY]WNT[dF][azaGly]L[Arg(Me)]W-NH2 [Compound No. 586] | 0.3 |
| Ac-[dY][dT]NTF[azaGly]L[Arg(Me)]W-NH2 [Compound No. 628] | 4.4 |
| Ac-[dY][dW]D(NHMe)TF[azaGly]L[Arg(Me)]W-NH2 [Compound No. 702] | 0.6 |
| Ac-[dY][dW]DTF[azaGly]L[Arg(Me)]W-NH2 [Compound No. 647] | 10.6 |
| Ac-[dY][dW]NS(Me)F[azaGly]L[Arg(Me)]W-NH2 [Compound No. 580] | 0.6 |
| Ac-[dY][dW]NTA[azaGly]L[Arg(Me)]W-NH2 [Compound No. 631] | 2 |
| Ac-[dY][dW]NTE[azaGly]L[Arg(Me)]W-NH2 [Compound No. 634] | 10.5 |
| Ac-[dY][dW]NTF[azaGly]A[Arg(Me)]W-NH2 [Compound No. 641] | 3.5 |
| Ac-[dY][dW]NTF[azaGly]F[Arg(Me)]W-NH2 [Compound No. 643] | 2.5 |

| Substance | Specific Act. (EC50/MS10 EC50) |
| --- | --- |
| Ac-[dY][dW]NTF[azaGly]LKW-NH2 [Compound No. 639] | 2 |
| Ac-[dY][dW]NTF[azaGly]LR(Et)W-NH2 [Compound No. 609] | 0.9 |
| Ac-[dY][dW]NTF[azaGly]LR(Tos)W-NH2 [Compound No. 604] | 6.3 |
| Ac-[dY][dW]NTF[azaGly]L[Arg(Me)][hPhe]-NH2 [Compound No. 594] | 2.1 |
| Ac-[dY][dW]NTF[azaGly]L[Arg(NO2)]W-NH2 [Compound No. 605] | 3.9 |
| Ac-[dY][dW]NTF[azaGly]L[Lys(Me2)]W-NH2 [Compound No. 610] | 1.9 |
| Ac-[dY][dW]NTF[azaGly]L[hArg]W-NH2 [Compound No. 645] | 1.1 |
| Ac-[dY][dW]NTF[azaGly]S[Arg(Me)]W-NH2 [Compound No. 644] | 2.5 |
| Ac-[dY][dW]NTK[azaGly]L[Arg(Me)]W-NH2 [Compound No. 633] | 3.4 |
| Ac-[dY][dW]NTL[azaGly]L[Arg(Me)]W-NH2 [Compound No. 632] | 1.1 |
| Ac-[dY][dW]NT[2Nal][azaGly]L[Arg(Me)]W-NH2 [Compound No. 694] | 1.7 |
| Ac-[dY][dW]NT[2Thi][azaGly]L[Arg(Me)]W-NH2 [Compound No. 695] | 0.7 |
| Ac-[dY][dW]NT[Cha][azaGly]L[Arg(Me)]W-NH2 [Compound No. 696] | 0.5 |
| Ac-[dY][dW]NT[dF]GL[Arg(Me)]W-NH2 [Compound No. 601] | 3.1 |
| Ac-[dY][dW]NT[dF][azaGly]L[Arg(Me)]W-NH2 [Compound No. 597] | 0.6 |
| Ac-[dY][dW]N[NMeS]F[azaGly]L[Arg(Me)]W-NH2 [Compound No. 656] | 2.9 |
| Ac-[dY][dW]N[aThr]F[azaGly]L[Arg(Me)]W-NH2 [Compound No. 659] | 0.6 |
| Ac-[dY][dW]N[dT]F[azaGly]L[Arg(Me)]W-NH2 [Compound No. 654] | 2.9 |
| Ac-[dY][dW]QSF[azaGly]L[Arg(Me)]W-NH2 [Compound No. 576] | 0.8 |
| Ac-[dY][dW]SSF[azaGly]L[Arg(Me)]W-NH2 [Compound No. 577] | 0.7 |

| Substance | Specific Act. (EC50/MS10 EC50) |
| --- | --- |
| Ac-[dY][dW]TSF[azaGly]L[Arg(Me)]W-NH2 [Compound No. 578] | 0.8 |
| Ac-[dY][dW][Abu]SF[azaGly]L[Arg(Me)]W-NH2 [Compound No. 573] | 0.7 |
| Ac-[dY][dW][Dap](Ac)SF[azaGly]L[Arg(Me)]W-NH2 [Compound No. 584] | 0.4 |
| Ac-[dY][dW][Dap](For)SF[azaGly]L[Arg(Me)]W-NH2 [Compound No. 585] | 0.4 |
| Ac-[dY][dW][Dap]SF[azaGly]L[Arg(Me)]W-NH2 [Compound No. 701] | 1.4 |
| Ac-[dY][dW][NMeN]TF[azaGly]L[Arg(Me)]W-NH2 [Compound No. 655] | 4.7 |
| Ac-[dY][dW][dN]TF[azaGly]L[Arg(Me)]W-NH2 [Compound No. 653] | 1.3 |
| Amidino-D-Trp-Asn-Thr-Phe-AzaGly-Leu-Arg(Me)-Trp-NH2 (Amidino-[dW]NTF[azaGly]L[Arg(Me)]W-NH2) [Compound No. 679] | 1.8 |
| Amidino-D-Tyr-D-Trp-Asn-Thr-Phe-AzaGly-Leu-Arg(Me)-Trp-NH2 [Compound No. 614] | 0.8 |
| Arg-Arg-D-Tyr-D-Pya(4)-Asn-Ser-Phe-AzaGly-Leu-Arg(Me)-Trp-NH2 [Compound No. 537] | 4.7 |
| Arg-D-Tyr-D-Pya(4)-Asn-Ser-Phe-AzaGly-Leu-Arg(Me)-Trp-NH2 [Compound No. 536] | 1.8 |
| Benzoyl-D-Trp-Asn-Thr-Phe-AzaGly-Leu-Arg(Me)-Trp-NH2 (Bz-[dW]NTF[azaGly]L[Arg(Me)]W-NH2; SMILES CNC(=N)NCCC[C@H](NC(=O)[C@H](CC(C)C)NC(=O)NNC(=O)[C@H](Cc1ccccc1)NC(=O)[C@@H](NC(=O)[C@H](CC(N)=O)NC(=O)[C@@H](Cc1c[nH]c2ccccc12)NC(=O)c1ccccc1)[C@@H](C)O)C(=O)N[C@@H](Cc1c[nH]c2ccccc12)C(N)=O) [Compound No. 669] | 0.5 |
| Bz-NTF[azaGly]L[Arg(Me)]W-NH2 [Compound No. 522] | 1.9 |
| Cyclohexanecarbonyl-D-Trp-Asn-Thr-Phe-AzaGly-Leu-Arg(Me)-Trp-NH2 (Cyclohexanecarbonyl-[dW]NTF[azaGly]L[Arg(Me)]W-NH2; SMILES CNC(=N)NCCC[C@H](NC(=O)[C@H](CC(C)C)NC(=O)NNC(=O)[C@H](Cc1ccccc1)NC(=O)[C@@H](NC(=O)[C@H](CC(N)=O)NC(=O)[C@@H](Cc1c[nH]c2ccccc12)NC(=O)C1CCCCC1)[C@@H](C)O)C(=O)N[C@@H](Cc1c[nH]c2ccccc12)C(N)=O) [Compound No. 668] | 1.2 |
| Cyclopropanecarbonyl-Asn-Ser-Phe-AzaGly-Leu-Arg(Me)-Trp-NH2 [Compound No. 534] | 5.6 |
| D-Arg-Acp-D-Tyr-D-Trp-Abu-Ser-Phe-AzaGly-Leu-Arg(Me)-Trp-NH2 [Compound No. 561] | 1.6 |
| D-Arg-Acp-D-Tyr-D-Trp-Asn-Thr-Phe-AzaGly-Leu-Arg(Me)-Trp-NH2 [Compound No. 541] | 2.0 |
| D-Arg-D-Arg-Acp-D-Tyr-D-Trp-Asn-Thr-Phe-AzaGly-Leu-Arg(Me)-Trp-NH2 [Compound No. 542] | 1.4 |
